Laboratory results as given in US20230165798A1, “MACROCYCLIC LACTONE FORMULATIONS, METHODS OF THEIR PREPARATION AND USE OF THE FORMULATIONS IN TREATING PATHOLOGIES SECONDARY TO OPHTHALMIC PARASITES” (Hovione Scientia, priority 2018, published 2023).

Assays:
[1] = Particle size D90 by laser diffraction before and after Gamma irradiation; type: physicochemical
Procedure: (§1) The solid-state characterization of the spray dried amorphous ivermectin solid dispersions of Examples 1-3 prepared by the traditional spray drying process were evaluated by Scanning Electronic Microscopy (SEM) (Phenom ProX SEM), Differential Scanning calorimetry (DSC) (TA Instruments), Laser diffraction (Sympatec HELOS/RODOS, Germany) employing the rotary feeder and R1 lens, X-Ray Powder Diffraction (Pan Analytical), Raman Spectroscopy (Witec) and High Performance Liquid Chromatography (Waters). FIG. 1 is a scanning electron microscopic picture of the amorphous solid dispersion of Example 1 (ivermectin and PVP-VA-64). FIG. 2 is a scanning electron microscopic image of the amorphous solid dispersion of Example 2 (ivermectin and PVP K-30). FIG. 3 is a scanning electron microscopic picture of the amorphous solid dispersion of Example 3 (ivermectin and HPMC E4M). FIGS. 1-3 are at a magnification of 6000×. FIGS. 4-6 are thermograms of the ASD of Examples 1-3 obtained by differential scanning calorimetry. FIGS. 7-9 are diffractograms of the ASD of Examples 1-3. […] FIGS. 10 and 11 are Raman spectrums for ivermectin, the polymer PVP VA-64 and mixtures of the two (FIG. 10) and ivermectin, the polymer PVP K-30 and mixtures of the two (FIG. 11). […] FIG. 10 includes ratios of ivermectin to PVP VA-64 at ratios of 1:1 and 1:2 and FIG. 11 includes ratios of ivermectin to PVP K-30 at ratios of 1:1, 1:3, and 2:3.
(§2) Table 4 provides a summary of the characterizations (HPLC, XRPD and particle size) of ivermectin and of the amorphous solid dispersion of Example 1 (PVP-VA 64), Example 2 (PVP K-30) and Example 3 (HPMC E4M) prior to irradiation and after irradiation. Preliminary trials of sterilization by gamma irradiation were successfully completed in the solid material of ivermectin alone and ASDs. The amorphous form of the ASDs was not affected by gamma irradiation.

[2] = system: TNF-α, IL-1, and IL-6 (lipopolysaccharide (LPS)-induced cytokines); conditions: through NF-κB; cited from earlier work
[3] = HPLC assay of ivermectin before and after Gamma irradiation; type: physicochemical
Source text: The inventors have also determined that use of the polymer in the amorphous solid dispersion of ivermectin protects the ivermectin from degradation that occurs during Gamma irradiation, heat sterilization or e-beam sterilization. Ophthalmic formulations must be sterilized and Gamma irradiation, heat sterilization or e-beam sterilization are suitable methods for sterilization because other methods, such as filtration, are not suitable for a suspension formulation. The amorphous solid dispersions for Examples 1-3 were tested to determine the extent that the polymer protects the ivermectin during Gamma irradiation. For preliminary tests, the amorphous ivermectin solid dispersions were sterilized by Gamma irradiation at 25 kGy for 22 hours in a Precisa 22 equipment. The ASDs were analyzed by XRPD and HPLC to determine if the Gamma irradiation changed the ivermectin polymorphic form and degradation respectively.
The assay of the ivermectin on the amorphous solid dispersion was performed before, 1 week and 1 month after the application of Gamma irradiation. Preliminary trials of sterilization by gamma irradiation were successfully completed in the solid material of ivermectin alone and ASDs.
as §2

demodex = conditions: oral ivermectin, 19 subjects, cited from earlier work
[4] = XRPD polymorphic form before and after Gamma irradiation; type: physicochemical
Procedure: as §1
The inventors have also determined that use of the polymer in the amorphous solid dispersion of ivermectin protects the ivermectin from degradation that occurs during Gamma irradiation, heat sterilization or e-beam sterilization. Ophthalmic formulations must be sterilized and Gamma irradiation, heat sterilization or e-beam sterilization are suitable methods for sterilization because other methods, such as filtration, are not suitable for a suspension formulation. […] The ASDs were analyzed by XRPD and HPLC to determine if the Gamma irradiation changed the ivermectin polymorphic form and degradation respectively. […]

[5] = Visual solubility in artificial sebum; type: physicochemical; conditions: 24 h of mixing with a magnetic stirrer at room temperature, same amount of ivermectin
Procedure: Some polymers have a capacity to improve the solubility of the ivermectin in the local region of application.
The sebum with the amorphous ivermectin dispersions remains clear (solubilized) after 24 h of mixing with a magnetic stirrer at room temperature, and without polymers the sebum continued opaque (ivermectin in suspension—not solubilized) after the addiction of the both forms of ivermectin (crystalline or amorphous).

Compound	D90 After irradiation (T = 1 week) ([1]; 1 week after Gamma irradiation) [μm]	D90 After irradiation (2 M) ([1]; after Gamma irradiation, cells marked (2 M) in the T = 1 month column)	D90 Before irradiation ([1]; before irradiation) [μm]	Change in TNF-α, IL-1, and IL-6 [2]	% API (After: 1 month) ([3]; HPLC, 1 month after Gamma irradiation at 25 kGy for 22 hours) [%]	% API (After: 1 week) ([3]; HPLC, 1 week after Gamma irradiation at 25 kGy for 22 hours) [%]	% API (Before) ([3]; HPLC, before Gamma irradiation) [%]	HPLC (Assay IVM) After irradiation (T = 1 month) ([3]; Table 4, 1 month after Gamma irradiation) [%]	HPLC (Assay IVM) After irradiation (T = 1 week) ([3]; Table 4, 1 week after Gamma irradiation) [%]	HPLC (Assay IVM) Before irradiation ([3]; Table 4, before irradiation) [%]	% API degraded ([3]; before vs 1 month after Gamma irradiation) [%]	Eradication of the demodex (demodex; by month 3 of treatment)	Improvement in signs of ocular inflammation (demodex)	Symptomatic improvement (demodex)	XRPD After irradiation (T = 1 month) ([4]; 1 month after Gamma irradiation)	XRPD After irradiation (T = 1 week) ([4]; 1 week after Gamma irradiation)	XRPD Before irradiation ([4]; before irradiation)	Solubility (visual inspection) [5]
CC[C@H](C)[C@H]1O[C@]2(CC[C@@H]1C)C[C@@H]1C[C@@H](C/C=C(\C)[C@@H](O[C@H]3C[C@H](OC)[C@@H](O[C@H]4C[C@H](OC)[C@@H](O)[C@H](C)O4)[C@H](C)O3)[C@@H](C)/C=C/C=C3\CO[C@@H]4[C@H](O)C(C)=C[C@@H](C(=O)O1)[C@]34O)O2 [IVM, ivermectin]	2.53	2.41 (2 M) μm	2.66	decrease	84.3	86.9	95.2	84.26	86.9	95.2	10.9	All subjects had eradication of the demodex	all subjects had an improvement	All but two subjects improved symptomatically	Amorphous	Amorphous	Amorphous	
ivermectin [Crystalline ivermectin]																		opaque
